In US4512986A, “Progrestationally active steroids” (priority 1983, dated 1985):
Entries after “also recorded” stand apart in the source; their conditions may differ. Like-named read-outs stand apart in the source and are kept apart here. Blank lines part the entries; values can stand above or below the compound they belong to.

Assays:
[1] = target: T1, Cytosol Progesterone Receptor of the Estrogen-primed Immature Rabbit Uterus (Oryctolagus cuniculus, UniProt P06186); experiment: Relative binding affinity for progesterone receptor (competition with 3H-progesterone); parameters: species or system rabbit (New Zealand White); details: 16-18 hour incubation, progesterone = 100
T1 construct: cytosol progesterone receptor of the estrogen-primed immature rabbit uterus; tissue Dutchland Laboratories, Inc., Denver, Pa (animals); host or cells: uterus cytosol of estradiol-treated immature female New Zealand White rabbits
T1 sequence (P06186 1-930): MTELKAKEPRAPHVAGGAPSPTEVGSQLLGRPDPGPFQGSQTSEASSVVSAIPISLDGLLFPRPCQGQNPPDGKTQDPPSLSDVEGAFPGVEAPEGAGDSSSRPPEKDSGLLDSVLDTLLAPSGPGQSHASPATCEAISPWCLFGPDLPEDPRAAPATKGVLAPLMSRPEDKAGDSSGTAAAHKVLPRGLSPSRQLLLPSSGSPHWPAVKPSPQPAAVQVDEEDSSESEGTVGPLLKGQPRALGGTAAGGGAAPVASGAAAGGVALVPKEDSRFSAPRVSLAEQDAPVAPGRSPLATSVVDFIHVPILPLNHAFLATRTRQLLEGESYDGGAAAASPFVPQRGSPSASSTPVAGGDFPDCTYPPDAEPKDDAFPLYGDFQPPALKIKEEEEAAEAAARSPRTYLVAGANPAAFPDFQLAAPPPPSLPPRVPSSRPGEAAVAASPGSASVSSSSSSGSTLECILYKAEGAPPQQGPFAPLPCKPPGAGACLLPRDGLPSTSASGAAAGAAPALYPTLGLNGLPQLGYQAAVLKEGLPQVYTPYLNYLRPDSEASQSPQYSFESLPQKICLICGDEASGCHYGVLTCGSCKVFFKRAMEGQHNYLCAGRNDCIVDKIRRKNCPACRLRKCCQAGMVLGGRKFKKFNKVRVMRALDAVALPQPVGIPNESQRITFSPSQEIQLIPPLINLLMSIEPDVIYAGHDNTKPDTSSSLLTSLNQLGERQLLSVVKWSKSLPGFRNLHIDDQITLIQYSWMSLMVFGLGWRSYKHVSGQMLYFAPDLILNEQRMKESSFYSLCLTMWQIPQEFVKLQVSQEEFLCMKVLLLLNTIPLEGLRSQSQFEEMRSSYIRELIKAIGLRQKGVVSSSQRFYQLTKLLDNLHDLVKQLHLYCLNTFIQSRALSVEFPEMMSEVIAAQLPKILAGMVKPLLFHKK
Description: RBA values recorded at 0° C. after short incubation times (e.g., 2 hr) mainly reflect differences in the association rate constants of the competing ligands, whereas those measured after long incubation times (e.g., 16 to 24 hr) and/or higher temperatures predominantly are influenced by differences in the dissociation rate constants of the competing ligands. RBA's determined after short incubation times primarily reflect the association of the competitor compared to the natural hormone. Conversely, RBA's measured after long incubation times reflect the dissociation rate of the competitor compared to the natural hormone.
The assay components are combined, allowed to equilibrate, and unbound radioactivity removed by charcoal adsorption.
Animal species. Immature female New Zealand White rabbits weighing 0.8 to 1.0 kg (Dutchland Laboratories, Inc., Denver, Pa).
Pretreatment. Subcutaneous treatment with 15 μg 17β-estradiol/0.6 ml sesame oil each morning (0830 to 0930 hr) for three days. Animals sacrificed 24 hr after final injection.
Tissue. Uterus; each uterus weighed about 1.0 g and two or three uteri were pooled for each assay.
Buffer. (A) 0.01M TES, pH 7.4, 1 mM EDTA, 0.012M thioglycerol and 30% glycerol for cytosol preparation and ^3 H-steroid, unlabeled hormone and compound solutions. (B) 0.01M TES, pH 7.4, 1 mM EDTA and 0.012M thioglycerol for charcoal solution.
Homogenization. Five or six 5-second bursts with 30 second cooling periods between bursts using Brinkman Polytron Pt. 10 at 3.5 rheostat setting.
Temperature. 0°-4° C. for all steps.
Centrifugation. 45,000 rpm for 1 hr, 50 Ti rotor, Beckman L8-80 ultracentrifuge.
Incubation. 16-18 hr at 4°-6° C.
Concentations. 1×10^-10 M to 1×10^-5 M (7 concentrations).
Method. Charcoal adsorption method used to remove unbound radioactivity. Five-tenths ml of dextran-coated charcoal (0.5% Norit A and 0.05% dextran T-70) added to all tubes except total radioactivity tubes (0.5 ml buffer [B] added), tubes vortexed 3-5 sec, allowed to sit for 10 minutes and centrifuged 10 minutes at 2000 rpm in Beckman TJ-6 centrifuge at 0°-4° C.
Data Interpretation. […] The relative binding affinity (RBA) of each compound was calculated by using the following equation. [formula] where

[2] = system: uterine endometrium of estrone-primed immature rabbits; experiment: Clauberg assay (progestational activity, McPhail); type: in vivo, rabbit (New Zealand White); details: for Uterine Weight (X ± S.D.) / McPhail Index (0-4) (X ± S.D.): oral; for McPhail Index (0-4) (X ± S.D.): 0 none, 4 maximal
[3] = system: androgen target organs of castrate immature male rats; experiment: Anti-androgenic activity in the castrate immature rat assay; type: in vivo
Description: The oral anti-androgenic activity of 6-methyl-6-dehydro-17α-ethynylprogesterone was evaluated in the castrate immature male rat assay [Lerner et al., Proc. Soc. […] The assay is briefly described in the footnotes to Table 11.
*This assay employs castrate immature rats. For methods refer to Lerner,
L. J., A. Bianchi and A. Borman, Proc. Soc.
**Groups of rats (7/group) were given daily injections of 0.3 ml sesame
oil (control) or compound (in 0.3 ml sesame oil) for 7 days. Some groups
also concurrently received progestational compounds by the sc or oral
route of administration in order to evaluate antiandrogenic activity. One
day after the final doses, the animals were sacrificed and the androgen
target organs indicated were weighed.
***Statistically significant (p < 0.05) lower organ weights versus the
testosterone, sc, (400 μg/rat/day) group as determined by Analysis of
Variance coupled with Duncan's Multiple Range Test.

[4] = target: T1, Cytosol Progesterone Receptor of the Estrogen-primed Immature Rabbit Uterus; details: relative to progesterone = 100; literature; cited from earlier work
[5] = system: estrogen-primed immature rabbits; details: cited from earlier work
[6] = system: endometrium of estrogen-primed ovariectomized or climacteric women; details: oral; cited from earlier work
[7] = oral 25 μg/rat daily + testosterone sc 400
[8] = oral 100 μg/rat daily + testosterone sc 400
[9] = oral 400 μg/rat daily + testosterone sc 400

SMILES: C#C[C@]1(C(C)=O)CC[C@H]2[C@@H]3C=C(C)C4=CC(=O)CC[C@]4(C)[C@H]3CC[C@@]21C [17α-Ethynyl-6-methylpregna-4,6-diene-3,20-dione]
RBA ([1]; Assay 6): 104%
potency relative to levonorgestrel, in words ([2]; both given orally): equipotent with levonorgestrel
progestational potency relative to subcutaneous progesterone, in words ([2]; compound given orally, progesterone sc): more than eight times as potent as progesterone administered subcutaneously
Uterine Weight (X ± S.D.) ([2]; 5 μg/rabbit daily): 0.99 ± 0.34 g
McPhail Index (0-4) (X ± S.D.) ([2]; 5 μg/rabbit daily): 0.00 ± 0.0
Uterine Weight (X ± S.D.) ([2]; 10 μg/rabbit daily): 1.11 ± 0.23 g
McPhail Index (0-4) (X ± S.D.) ([2]; 10 μg/rabbit daily): 0.17 ± 0.12
Uterine Weight (X ± S.D.) ([2]; 25 μg/rabbit daily): 2.93 ± 1.33 g
McPhail Index (0-4) (X ± S.D.) ([2]; 25 μg/rabbit daily): 3.33 ± 0.62
Uterine Weight (X ± S.D.) ([2]; 50 μg/rabbit daily): 3.59 ± 0.43 g
McPhail Index (0-4) (X ± S.D.) ([2]; 50 μg/rabbit daily): 4.00 ± 0.00
Levator Ani weight (X ± S.D.) [3, 7]: 63 ± 13 mg
Seminal Vesicles weight (X ± S.D.) [3, 7]: 141 ± 43 mg
Ventral Prostate weight (X ± S.D.) [3, 7]: 61 ± 13 mg
Levator Ani weight (X ± S.D.) [3, 8]: 68 ± 13 mg
Seminal Vesicles weight (X ± S.D.) [3, 8]: 141 ± 9 mg
Ventral Prostate weight (X ± S.D.) [3, 8]: 63 ± 25 mg
Levator Ani weight (X ± S.D.) [3, 9]: 66 ± 9 mg
Seminal Vesicles weight (X ± S.D.) [3, 9]: 129 ± 37 mg
Ventral Prostate weight (X ± S.D.) [3, 9]: 43 ± 12 mg
anti-androgenic activity, in words ([3]; with testosterone sc 400 μg/rat/day, doses up to 400 μg/rat/day (progestagen oral; progesterone sc), listed as 6-methyl-6-dehydro-17α-ethynylprogesterone): significant depression of ventral prostate weight; also recorded: Seminal vesicle weight also was depressed at the same dose level, but the decrease was not statistically significant

SMILES: CC(=O)[C@H]1CC[C@H]2[C@@H]3CCC4=CC(=O)CC[C@@H]4[C@H]3CC[C@]12C [19-norprogesterone]
RBA (Kontula et al. 1975) [4]: 258

RBA ([1]; Assay 1, 5α-dihydro-17α-ethynyl: lot 1): 111%
SMILES: C#C[C@]1(O)CC[C@H]2[C@@H]3CCC4=CC(=O)CC[C@@H]4[C@H]3CC[C@@]21CC [Levonorgestrel, reference compound]
Uterine Weight (X ± S.D.) ([2]; 5 μg/rabbit daily): 1.30 ± 0.49 g
McPhail Index (0-4) (X ± S.D.) ([2]; 5 μg/rabbit daily): 0.08 ± 0.12
Uterine Weight (X ± S.D.) ([2]; 10 μg/rabbit daily): 0.86 ± 0.04 g
McPhail Index (0-4) (X ± S.D.) ([2]; 10 μg/rabbit daily): 0.04 ± 0.06
Uterine Weight (X ± S.D.) ([2]; 25 μg/rabbit daily): 2.59 ± 0.81 g
McPhail Index (0-4) (X ± S.D.) ([2]; 25 μg/rabbit daily): 3.71 ± 0.16
Uterine Weight (X ± S.D.) ([2]; 50 μg/rabbit daily): 1.95 ± 0.41 g
McPhail Index (0-4) (X ± S.D.) ([2]; 50 μg/rabbit daily): 2.92 ± 0.42
Uterine Weight (X ± S.D.) ([2]; 100 μg/rabbit daily): 3.57 ± 1.08 g
McPhail Index (0-4) (X ± S.D.) ([2]; 100 μg/rabbit daily): 3.90 ± 0.12
Uterine Weight (X ± S.D.) ([2]; 200 μg/rabbit daily): 2.80 ± 0.14 g
McPhail Index (0-4) (X ± S.D.) ([2]; 200 μg/rabbit daily): 4.00 ± 0.00
Uterine Weight (X ± S.D.) ([2]; 400 μg/rabbit daily): 2.67 ± 0.80 g
McPhail Index (0-4) (X ± S.D.) ([2]; 400 μg/rabbit daily): 3.70 ± 0.47
Threshold or effective dose, Clauberg Assay ([5]; oral): 0.03 mg/animal
Threshold or effective dose, Clauberg Assay ([5]; s.c. (i.m.)): 0.01-0.03 mg/animal
Threshold or effective dose, Kaufman Assay [6]: 6 mg/cycle
